Patent US20250332173A1, “COMPOUNDS AND METHODS FOR MODULATING NUCLEIC ACID SPLICING” (REMIX THERAPEUTICS INC., priority 2021, published 2025)
Where two headings read alike, the source gives them in different places.

Key:
Format in all cases: cell-based, human
[1] = system: MYB mRNA; experiment: RT-qPCR splicing assay, MYB canonical junction (CJ) and alternative junction (AJ) mRNA; conditions: Homo sapiens; for AC50: increase in MYB alternative junction (AJ) mRNA, read-out: MYB AJ AC50
In short: (§1)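 24 h treatment, 37 °C/5% CO2; A673 or K562; 11-pt 3-fold series, top 10 uM final; DMSO ≤0.25%. Cell lysis with DNase I, then 1-step RT-qPCR. Housekeeping normalization: PPIA (A673), GAPDH or GUSB (K562).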

[2] = system: MYB; experiment: HiBiT protein abundance assay, MYB HiBiT K562 cell line; conditions: 24 hours, top dose 10 μM
In short: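 K562 knock-in lines with endogenous HiBiT-tagged target, 10,000 cells/well in IMDM + FBS, treated 24 h at 37° C with 10-point 3-fold dilutions (top 10 μM final; DMSO ≤0.25%). Lytic Nano-Glo HiBiT luminescence normalized to untagged K562 baseline and DMSO controls; IC50 = concentration giving 50% abundance via four-parameter fit.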

[3] = system: HTT mRNA; experiment: RT-qPCR splicing assay, HTT canonical junction (CJ) and alternative junction (AJ) mRNA; conditions: Homo sapiens; for AC50: increase in HTT alternative junction (AJ) mRNA, read-out: HTT AJ AC50
In short: as §1

[4] = canonical junction qPCR panel, Table 5, read-out: MYB (decrease in CJ mRNA levels, IC50)
[5] = decrease in MYB canonical junction (CJ) mRNA, RT-qPCR, read-out: MYB CJ IC50
[6] = HiBiT lytic detection, modified K562 cells, read-out: Effect on protein abundance, MYB (IC50)
[7] = decrease in HTT canonical junction (CJ) mRNA, RT-qPCR, read-out: HTT CJ IC50
[8] = canonical junction qPCR panel, Table 5, read-out: HTT (decrease in CJ mRNA levels, IC50)
[9] = Table 5 panel, canonical junction qPCR, compound concentration having 50% response in CJ decrease, read-out: MYB IC50 (decrease in CJ mRNA levels)
[10] = HiBiT K562 cell line, read-out: Effect on protein abundance, MYB (IC50 category)
[11] = Table 5 panel, canonical junction qPCR, compound concentration having 50% response in CJ decrease, read-out: HTT IC50 (decrease in CJ mRNA levels)

Structure (SMILES) | IC50 [1, 4] | IC50 [1, 5] | AC50 ([1]; RT-qPCR) | IC50 [2, 6] | IC50 [3, 7] | AC50 ([3]; RT-qPCR) | IC50 [3, 8] | IC50 [1, 9] | IC50 [2, 10] | IC50 [3, 11]
CCN1CC[C@@H](n2ncc3nc(-c4cc(C)c5nc(C)cn5n4)ccc3c2=O)CC12CC2 [Compound 1530] | < 0.1 µM | < 0.1 µM | < 0.1 µM | < 0.1 µM | < 0.1 µM | < 0.1 µM | < 0.1 µM | – | – | –
Cc1cn2cc(-c3ccc4c(=O)n(C5CCNC6(CC6)C5)cnc4c3)cc(F)c2n1 (stereo not shown) [Compound 236] | – | < 0.1 µM | 0.1 to 1 µM | – | 0.1 to 1 µM | 0.1 to 1 µM | – | 0.1 to 1 µM | 0.1 to 1 µM | 0.1 to 1 µM
Cc1cc(-c2ccc3c(=O)n(C4CCN(C)CC4)cnc3c2F)cc2cn(C)nc12 [Compound 235] | – | > 10 µM | > 10 µM | – | > 10 µM | > 10 µM | – | > 10 µM | 1 to 10 µM | > 10 µM
Cc1cn2cc(-c3ccc4c(c3)CCN(C3CCNCC3)C4=O)cc(Cl)c2n1 [Compound 216, 6-[8-chloro-2-methylimidazo[1,2-a]pyridin-6-yl]-2-(piperidin-4-yl)-3,4-dihydroisoquinolin-1-one] | – | 1 to 10 µM | 0.1 to 1 µM | – | 1 to 10 µM | 1 to 10 µM | – | 0.1 to 1 µM | 0.1 to 1 µM | 1 to 10 µM
Cc1cn2cc(-n3cnc4ccc(N5CCNCC5)cc4c3=O)cc(F)c2n1 [Compound 2195] | > 10 µM | > 10 µM | > 10 µM | > 10 µM | > 10 µM | > 10 µM | > 10 µM | – | – | –
Cc1c(O)c(-c2ncc3c(=O)n([C@@H]4CC[C@H](N)C4)ccc3n2)cc2cn(C)nc12 [Compound 1477] | < 0.1 µM | < 0.1 µM | < 0.1 µM | 0.1 to 1 µM | 0.1 to 1 µM | < 0.1 µM | < 0.1 µM | – | – | –
Cc1cn2nc(-c3ccc4c(=O)n([C@@H]5CCN(C)[C@H](C)C5)ncc4n3)cc(C)c2n1 [Compound 1527] | 0.1 to 1 µM | 0.1 to 1 µM | 0.1 to 1 µM | 0.1 to 1 µM | 0.1 to 1 µM | 0.1 to 1 µM | 0.1 to 1 µM | – | – | –
Cc1cc(-c2ccc3c(=O)[nH]c(N4CCN(C)CC4)nc3c2)cc2cn(C)nc12 [Compound 2212] | 1 to 10 µM | 1 to 10 µM | 1 to 10 µM | > 10 µM | 1 to 10 µM | 1 to 10 µM | 1 to 10 µM | – | – | –
Cn1cc2cc(-c3ncc4c(=O)n([C@H]5CCNC5)ccc4n3)c(O)c(F)c2n1 [Compound 1465] | 0.1 to 1 µM | 0.1 to 1 µM | 0.1 to 1 µM | – | 0.1 to 1 µM | 0.1 to 1 µM | 0.1 to 1 µM | – | 0.1 to 1 µM | –
Cc1cc(-c2ccc3ncn(C4CCNCC4)c(=O)c3c2)cc2cn(C)nc12 [Compound 2169] | > 10 µM | > 10 µM | > 10 µM | > 10 µM | > 10 µM | > 10 µM | > 10 µM | – | – | –
Cc1cc(-c2ccc3c(=O)n(C4CCNCC4)cnc3c2F)cc2cn(C)nc12 [Compound 234] | – | 1 to 10 µM | 1 to 10 µM | – | 1 to 10 µM | 1 to 10 µM | – | 1 to 10 µM | 1 to 10 µM | 1 to 10 µM
Cc1c(O)c(-c2ccc3c(=O)n([C@H]4C[C@@H](C)N[C@@H](C)C4)ccc3n2)cc2cn(C)nc12 [Compound 1464, 6-[(2S,6R)-2,6-dimethyl-4-piperidyl]-2-(6-hydroxy-2,7-dimethyl-indazol-5-yl)-1,6-naphthyridin-5-one] | < 0.1 µM | 0.1 to 1 µM | < 0.1 µM | – | 0.1 to 1 µM | 0.1 to 1 µM | 0.1 to 1 µM | – | < 0.1 µM | –
Cc1cn2cc(-n3cnc4ccc(N(C)C5CCNCC5)cc4c3=O)cc(F)c2n1 [Compound 2200] | > 10 µM | > 10 µM | > 10 µM | > 10 µM | > 10 µM | > 10 µM | > 10 µM | – | – | –
Cc1cn2cc(-c3ccc4c(=O)n(C5CCN(C)CC5)cnc4c3)cc(F)c2n1 [Compound 207] | – | 1 to 10 µM | 1 to 10 µM | – | 1 to 10 µM | 1 to 10 µM | – | 1 to 10 µM | 1 to 10 µM | 1 to 10 µM
Cn1cc2cc(-c3ccc4c(=O)n(C5CCNCC5)cnc4c3)cc(F)c2n1 [Compound 206] | – | < 0.1 µM | 0.1 to 1 µM | – | 0.1 to 1 µM | 0.1 to 1 µM | – | 0.1 to 1 µM | 0.1 to 1 µM | 0.1 to 1 µM
Cc1cn2cc(-c3ccc4c(c3)CCN(C3CCNCC3)C4=O)c(C)cc2n1 [Compound 218, 6-[2,7-dimethylimidazo[1,2-a]pyridin-6-yl]-2-(piperidin-4-yl)-3,4-dihydroisoquinolin-1-one] | – | 1 to 10 µM | 1 to 10 µM | – | 1 to 10 µM | 1 to 10 µM | – | 1 to 10 µM | 1 to 10 µM | 1 to 10 µM
Cc1c(O)c(-c2ccc3c(=O)n([C@@H]4C[C@@H](C)N[C@@H](C)C4)ccc3n2)cc2cn(C)nc12 [Compound 1463, 6-[(2S,6R)-2,6-dimethyl-4-piperidyl]-2-(6-hydroxy-2,7-dimethyl-indazol-5-yl)-1,6-naphthyridin-5-one] | 0.1 to 1 µM | 0.1 to 1 µM | 0.1 to 1 µM | – | 1 to 10 µM | 0.1 to 1 µM | 0.1 to 1 µM | – | 0.1 to 1 µM | –
COc1cc(-c2ccc3c(=O)n([C@H]4CCN[C@@H](C)C4)ccc3n2)nn2cc(C)nc12 [Compound 1519, 2-(8-methoxy-2-methyl-imidazo[1,2-b]pyridazin-6-yl)-6-[(2S,4S)-2-methyl-4-piperidyl]-1,6-naphthyridin-5-one] | 0.1 to 1 µM | 0.1 to 1 µM | 0.1 to 1 µM | < 0.1 µM | 0.1 to 1 µM | < 0.1 µM | < 0.1 µM | – | – | –
O=C1c2ccc(-c3cn[nH]c3)cc2CCN1C1CCNCC1 [Compound 220, 2-(piperidin-4-yl)-6-(1H-pyrazol-4-yl)-3,4-dihydroisoquinolin-1-one] | – | > 10 µM | > 10 µM | – | > 10 µM | > 10 µM | – | > 10 µM | > 10 µM | > 10 µM
Cc1c(O)c(-c2ccc3c(=O)n(C4CCNC4)cc(C)c3n2)cc2cn(C)nc12 (stereo not shown) [Compound 1467] | 0.1 to 1 µM | 0.1 to 1 µM | 0.1 to 1 µM | 0.1 to 1 µM | > 10 µM | 1 to 10 µM | 1 to 10 µM | – | – | –
Cc1c(O)c(-c2ncc3c(=O)n([C@H]4CC[C@@H](N(C)C)CC4)ccc3n2)cc2cn(C)nc12 [Compound 1460, 6-((1s,4s)-4-(dimethylamino)cyclohexyl)-2-(6-hydroxy-2,7-dimethyl-2H-indazol-5-yl)pyrido[4,3-d]pyrimidin-5(6H)-one] | 0.1 to 1 µM | 0.1 to 1 µM | 0.1 to 1 µM | – | 1 to 10 µM | 0.1 to 1 µM | 0.1 to 1 µM | – | 0.1 to 1 µM | –
Cc1cn2cc(-n3cnc4cc(N5CCNCC5)ccc4c3=O)cc(F)c2n1 [Compound 228] | – | 0.1 to 1 µM | 0.1 to 1 µM | – | 0.1 to 1 µM | 0.1 to 1 µM | – | 0.1 to 1 µM | 0.1 to 1 µM | 0.1 to 1 µM
